Earlier results as cited in patent US20090062239A1, “THROMBIN RECEPTOR ANTAGONISTS AS PROPHYLAXIS TO COMPLICATIONS FROM CARDIOPULMONARY SURGERY” (Schering Corporation, priority 2005, published 2009).

Experiments:
[1] = treated patients, cardiac/coronary surgery
[2] = high-risk patients undergoing primary CABG, those on aspirin, reoperative bypass
[3] = vein grafts closing off between two weeks and one year after CABG surgery

Row | Compound | risk for postoperative hemorrhage [1] | other results
1 | low-molecular weight heparin | greater risk | –
2 | abciximab | greater risk | –
3 | Aprotinin | – | postoperative blood loss [2]: significantly decreases; transfusion requirements (both units and number of patients) [2]: significantly decreases
4 | CC(=O)Oc1ccccc1C(=O)O [aspirin] | – | reduction of later vein graft closings [3]: 50%
5 | COC(=O)[C@H](c1ccccc1Cl)N1CCc2sccc2C1 [clopidogrel] | greater risk | –
